This is an account of results in patent US11078216B2, “Bisaryl amides as NRF2 activators” (GLAXOSMITHKLINE INTELLECTUAL PROPERTY DEVELOPMENT LIMITED, priority 2016, dated 2021).

This assay relates to NRF2 (NQO1 activity as marker for NRF2 activation), BEAS-2B cells. Put plainly: BEAS-2B NQO1 MTT Assay. Conditions: Homo sapiens, EC50 of NQO1 specific activity induction, 48 hours incubation, read-out: EC50. The class given is cell-based. The source says: NAD(P)H:quinone oxidoreductase 1 (NQO1), also called DT diaphorase, is a homodimeric FAD-containing enzyme that catalyzes obligatory NAD(P)H-dependent two-electron reductions of quinones and protects cells against the toxic and neoplastic effects of free radicals and reactive oxygen species arising from one-electron reductions. The transcription of NQO1 is finely regulated by NRF2, and thus NQO1 activity is a good marker for NRF2 activation. On day one, frozen BEAS-2B cells (ATCC) are thawed in a water bath, counted, and re-suspended at a concentration of 250,000 cells/mL. Fifty microliters of cells are plated in 384 well black clear-bottomed plates. Plates are incubated at 37° C., 5% CO2 overnight. On day two, plates are centrifuged and 50 nL of compound or controls are added to the cells. Plates are then incubated at 37° C., 5% CO2 for 48 hours. On day four, medium is aspirated from the plate and crude cell lysates are made by adding 13 uL of 1× Cell Signaling Technologies lysis buffer with 1 Complete, Mini, EDTA-free Protease Inhibitor Tablet (Roche) for each 10 mL of lysis buffer. After lysis plates are incubated for 20 minutes at room temperature. Two microliters of lysate are removed for use in Cell Titer Glo assay (Promega) and MTT cocktail is prepared (Prochaska et. al. 1998) for measurement of NQO1 activity. Fifty microliters of MTT cocktail is added to each well, plate is centrifuged, and analyzed on an Envision plate reader (Perkin Elmer) using Absorbance 570 nm label for 30 minutes. Product formation is measured kinetically and the EC50 of NQO1 specific activity induction is calculated by plotting the change in absorbance (Delta OD/min) versus the log of compound concentration followed by 3-parameter fitting.
EC50s<1 nM (+++++), EC50s 1 nM-10 nM (++++), EC50s 10 nM-100 nM (+++), EC50s 100 nM-1 uM (++), EC50s 1-10 uM (+), EC50s>10 uM (−), or were not determined (ND).

In general, EC50 refers to the concentration needed to bring the measured effect to its halfway point.

Regarding `CC[C@@H]1CN(Cc2cc([C@H](CC(=O)Nc3ccnn3C)c3ccc4c(nnn4CC)c3C)ccc2C)S(=O)(=O)c2cccnc2O1` [Example 9, (S)-3-(3-(((R)-4-Ethyl-1,1-dioxido-3,4-dihydro-2H-pyrido[2,3-b][1,4,5]oxathiazepin-2-yl)methyl)-4-methylphenyl)-3-(1-ethyl-4-methyl-1H-benzo[d][1,2,3]triazol-5-yl)-N-(1-methyl-1H-pyrazol-5-yl)propanamide], the EC50 is 0.1 to 1 µM.
Under `CC[C@@H]1CN(Cc2cc([C@H](CC(=O)Nc3cnccc3C)c3ccc4c(nnn4CC)c3C)ccc2C)S(=O)(=O)c2cccnc2O1` [Example 10, (S)-3-(3-(((R)-4-Ethyl-1,1-dioxido-3,4-dihydro-2H-pyrido[2,3-b][1,4,5]oxathiazepin-2-yl)methyl)-4-methylphenyl)-3-(1-ethyl-4-methyl-1H-benzo[d][1,2,3]triazol-5-yl)-N-(4-methylpyridin-3-yl)propanamide] stands 0.1 to 1 µM.
On to `CC[C@@H]1CN(Cc2cc([C@H](CC(=O)Nc3cnccc3OC)c3ccc4c(nnn4CC)c3C)ccc2C)S(=O)(=O)c2cccnc2O1` [Example 11, (S)-3-(3-(((R)-4-Ethyl-1,1-dioxido-3,4-dihydro-2H-pyrido[2,3-b][1,4,5]oxathiazepin-2-yl)methyl)-4-methylphenyl)-3-(1-ethyl-4-methyl-1H-benzo[d][1,2,3]triazol-5-yl)-N-(4-methoxypyridin-3-yl)propanamide], for which the EC50 lay within 0.01 to 0.1 µM.
To `CC[C@@H]1CN(Cc2cc([C@H](CC(=O)Nc3cncc(C(F)(F)F)c3)c3ccc4c(nnn4CC)c3C)ccc2C)S(=O)(=O)c2cccnc2O1` [Example 12, (S)-3-(3-(((R)-4-Ethyl-1,1-dioxido-3,4-dihydro-2H-pyrido[2,3-b][1,4,5]oxathiazepin-2-yl)methyl)-4-methylphenyl)-3-(1-ethyl-4-methyl-1H-benzo[d][1,2,3]triazol-5-yl)-N-(5-(trifluoromethyl)pyridin-3-yl)propanamide] belongs 0.01 to 0.1 µM; to `CC[C@@H]1CN(Cc2cc([C@H](CC(=O)Nc3cncc(OC)c3)c3ccc4c(nnn4CC)c3C)ccc2C)S(=O)(=O)c2cccnc2O1` [Example 13, (S)-3-(3-(((R)-4-Ethyl-1,1-dioxido-3,4-dihydro-2H-pyrido[2,3-b][1,4,5]oxathiazepin-2-yl)methyl)-4-methylphenyl)-3-(1-ethyl-4-methyl-1H-benzo[d][1,2,3]triazol-5-yl)-N-(5-methoxypyridin-3-yl)propanamide], 0.01 to 0.1 µM.
For the molecule `CC[C@@H]1CN(Cc2cc([C@H](CC(=O)Nc3ccc(C(F)(F)F)nc3)c3ccc4c(nnn4CC)c3C)ccc2C)S(=O)(=O)c2cccnc2O1` [Example 14, (S)-3-(3-(((R)-4-Ethyl-1,1-dioxido-3,4-dihydro-2H-pyrido[2,3-b][1,4,5]oxathiazepin-2-yl)methyl)-4-methylphenyl)-3-(1-ethyl-4-methyl-1H-benzo[d][1,2,3]triazol-5-yl)-N-(6-(trifluoromethyl)pyridin-3-yl)propanamide], the EC50 was 0.1 to 1 µM.
Under `CC[C@@H]1CN(Cc2cc([C@H](CC(=O)Nc3ccc(C)nc3)c3ccc4c(nnn4CC)c3C)ccc2C)S(=O)(=O)c2cccnc2O1` [Example 15, (S)-3-(3-(((R)-4-Ethyl-1,1-dioxido-3,4-dihydro-2H-pyrido[2,3-b][1,4,5]oxathiazepin-2-yl)methyl)-4-methylphenyl)-3-(1-ethyl-4-methyl-1H-benzo[d][1,2,3]triazol-5-yl)-N-(6-methylpyridin-3-yl)propanamide] stands 0.1 to 1 µM; under `CC[C@@H]1CN(Cc2cc([C@H](CC(=O)NCc3nccn3C)c3ccc4c(nnn4CC)c3C)ccc2C)S(=O)(=O)c2cccnc2O1` [Example 16, (S)-3-(3-(((R)-4-Ethyl-1,1-dioxido-3,4-dihydro-2H-pyrido[2,3-b][1,4,5]oxathiazepin-2-yl)methyl)-4-methylphenyl)-3-(1-ethyl-4-methyl-1H-benzo[d][1,2,3]triazol-5-yl)-N-((1-methyl-1H-imidazol-2-yl)methyl)propanamide], 1 to 10 µM; under `CC[C@@H]1CN(Cc2cc([C@H](CC(=O)Nc3nccn3C)c3ccc4c(nnn4CC)c3C)ccc2C)S(=O)(=O)c2cccnc2O1` [Example 17, (S)-3-(3-(((R)-4-Ethyl-1,1-dioxido-3,4-dihydro-2H-pyrido[2,3-b][1,4,5]oxathiazepin-2-yl)methyl)-4-methylphenyl)-3-(1-ethyl-4-methyl-1H-benzo[d][1,2,3]triazol-5-yl)-N-(1-methyl-1H-imidazol-2-yl)propanamide], 0.1 to 1 µM.
To `CC[C@@H]1CN(Cc2cc([C@H](CC(=O)Nc3cncc4ccccc34)c3ccc4c(nnn4CC)c3C)ccc2C)S(=O)(=O)c2cccnc2O1` [Example 18, (S)-3-(3-(((R)-4-Ethyl-1,1-dioxido-3,4-dihydro-2H-pyrido[2,3-d][1,4,5]oxathiazepin-2-yl)methyl)-4-methylphenyl)-3-(1-ethyl-4-methyl-1H-benzo[d][1,2,3]triazol-5-yl)-N-(isoquinolin-4-yl)propanamide] belongs 0.01 to 0.1 µM; to `CC[C@@H]1CN(Cc2cc([C@H](CC(=O)Nc3ccncc3)c3ccc4c(nnn4CC)c3C)ccc2C)S(=O)(=O)c2cccnc2O1` [Example 19, (S)-3-(3-(((R)-4-Ethyl-1,1-dioxido-3,4-dihydro-2H-pyrido[2,3-b][1,4,5]oxathiazepin-2-yl)methyl)-4-methylphenyl)-3-(1-ethyl-4-methyl-1H-benzo[d][1,2,3]triazol-5-yl)-N-(pyridin-4-yl)propanamide], 0.1 to 1 µM.
To `CC[C@@H]1CN(Cc2cc([C@@H](c3ccc4c(nnn4CC)c3C)[C@@H](C)C(=O)N3C(=O)OC[C@H]3Cc3ccccc3)ccc2C)S(=O)(=O)c2cccnc2O1` [Example 20, (R)-4-Benzyl-3-((2R,3S)-3-(3-(((R)-4-ethyl-1,1-dioxido-3,4-dihydro-2H-pyrido[2,3-b][1,4,5]oxathiazepin-2-yl)methyl)-4-methylphenyl)-3-(1-ethyl-4-methyl-1H-benzo[d][1,2,3]triazol-5-yl)-2-methylpropanoyl)oxazolidin-2-one] belongs 0.1 to 1 µM.
Consider `CC[C@@H]1CN(Cc2cc([C@H](CC(=O)NCCC(=O)N(C)C)c3ccc4c(nnn4CC)c3C)ccc2C)S(=O)(=O)c2cccnc2O1` [Example 21, (S)—N-(3-(Dimethylamino)-3-oxopropyl)-3-(3-(((R)-4-ethyl-1,1-dioxido-3,4-dihydro-2H-pyrido[2,3-b][1,4,5]oxathiazepin-2-yl)methyl)-4-methylphenyl)-3-(1-ethyl-4-methyl-1H-benzo[d][1,2,3]triazol-5-yl)propanamide], for which the EC50 fell in the range of 1 to 10 µM.
As to `CC[C@@H]1CN(Cc2cc([C@H](CC(=O)NC3CCOC3)c3ccc4c(nnn4CC)c3C)ccc2C)S(=O)(=O)c2cccnc2O1` (stereo partly drawn) [Example 22, (3S)-3-(3-(((R)-4-Ethyl-1,1-dioxido-3,4-dihydro-2H-pyrido[2,3-b][1,4,5]oxathiazepin-2-yl)methyl)-4-methylphenyl)-3-(1-ethyl-4-methyl-1H-benzo[d][1,2,3]triazol-5-yl)-N-(tetrahydrofuran-3-yl)propanamide], the EC50 was 0.1 to 1 µM.
Under `CC[C@@H]1CN(Cc2cc([C@H](CC(=O)NC(C)(C)C(N)=O)c3ccc4c(nnn4CC)c3C)ccc2C)S(=O)(=O)c2cccnc2O1` [Example 23, (S)-N-(1-Amino-2-methyl-1-oxopropan-2-yl)-3-(3-(((R)-4-ethyl-1,1-dioxido-3,4-dihydro-2H-pyrido[2,3-b][1,4,5]oxathiazepin-2-yl)methyl)-4-methylphenyl)-3-(1-ethyl-4-methyl-1H-benzo[d][1,2,3]triazol-5-yl)propanamide] stands 1 to 10 µM; under `CC[C@@H]1CN(Cc2cc([C@H](CC(=O)NC3CN(C)C3)c3ccc4c(nnn4CC)c3C)ccc2C)S(=O)(=O)c2cccnc2O1` [Example 24, (S)-3-(3-(((R)-4-Ethyl-1,1-dioxido-3,4-dihydro-2H-pyrido[2,3-b][1,4,5]oxathiazepin-2-yl)methyl)-4-methylphenyl)-3-(1-ethyl-4-methyl-1H-benzo[d][1,2,3]triazol-5-yl)-N-(1-methylazetidin-3-yl)propanamide], 1 to 10 µM.
Under `CC[C@@H]1CN(Cc2cc([C@H](CC(=O)NC3CCCOC3)c3ccc4c(nnn4CC)c3C)ccc2C)S(=O)(=O)c2cccnc2O1` (stereo partly drawn) [Example 25, (3S)-3-(3-(((R)-4-Ethyl-1,1-dioxido-3,4-dihydro-2H-pyrido[2,3-b][1,4,5]oxathiazepin-2-yl)methyl)-4-methylphenyl)-3-(1-ethyl-4-methyl-1H-benzo[d][1,2,3]triazol-5-yl)-N-(tetrahydro-2H-pyran-3-yl)propanamide] stands 0.1 to 1 µM.
